# Source: patent US20260200849A1, “CATIONIC LIPIDS AND PREPARATION METHOD THEREOF” (RiboX Therapeutics HK Limited, priority 2024, published 2026)
# Key:
# [1] = LNP size and polydispersity index (PDI) by dynamic light scattering (Zetasizer); type: physicochemical; settings: for PDI / Size: Formulation No. 001, RNA No. 331; for Size (nm): Formulation No. 001 (Ionizable lipid:DSPC:cholesterol:DMG-PEG2000 = 50:10:38.5:1.5, N/P 6), RNA No. 331
# Procedure: (§1) The LNP size and polydispersity index (PDI), determined by dynamic light scattering (DLS), and zeta potential were measured by a Zetasizer machine (Malvern). RNA concentration and encapsulation efficacy (EE %) were analyzed by the Quant-IT Ribogreen kit by calculating the percentage encapsulation at 100%—(RNA-LNPs/RNA-LNPs with Triton X-100).
# C57BL/6J mice = assay: In vivo expression by IV, 1.0 mg/kg luciferase RNA-LNPs, whole-body and organ IVIS luminescence; settings: IV 1.0 mg/kg, 24 h post injection, male C57BL/6J mice N=3, Formulation 001, RNA 331
# Procedure: (§2) 6-8 week old, male C57BL/6J mice (N=3) were injected with 1.0 mg*kg−1 of RNA-LNPs encoding for firefly-luciferase by intravenous injection. At 24-hours post injection, animals were intraperitoneally injected with 15 mg/ml of Luciferin substrate and whole-body/liver/spleen/kidney/small intestine/large intestine luminescence were determined by a bioluminescent in vivo imaging system (IVIS).
# as §2, with “mg/nil” for “mg/ml”
# IL-6 = assay: In vivo tolerability by IV: serum IL-6 by Luminex; parameters: species or system C57BL/6J mice; settings: IV 1.0 mg/kg, male C57BL/6J mice N=3, Formulation 001, RNA 331
# Procedure: (§3) 6-8 week old, male C57BL/6J mice (N=3) were injected with 1.0 mg*kg/1 of RNA-LNPs encoding for firefly-luciferase by intravenous injection. At 2- and 24-hours post injection, about 40 μL blood was harvested and immediately added to the procoagulant containing tube. Stand for 30 min at room temperature and then centrifuged at 2500 g×10 min to obtain serum. About 15 μL serum samples were aliquoted for cytokine (MCP-1 and IL-6) detection by Luminex (ProcartaPlex Mouse 2-plex, Thermo). PBS group as negative control.
# as §3, with “mg*kg−1” for “mg*kg/1”
# MCP-1 = assay: In vivo tolerability by IV: serum MCP-1 by Luminex; parameters: species or system C57BL/6J mice; settings: IV 1.0 mg/kg, male C57BL/6J mice N=3, Formulation 001, RNA 331
# Procedure: as §3
# as §3, with “mg*kg−1” for “mg*kg/1”
# Balb/c mice = assay: In vivo expression by IV, 0.05 mg/kg luciferase RNA-LNPs, IVIS luminescence; settings: IV 0.05 mg/kg, 24 h post injection, female Balb/c mice N=3, Formulation 001, RNA 331
# Procedure: (§4) 7-8 week old, female Balb/c mice (N=3) were injected with 0.05 mg*kg−1 of RNA-LNPs encoding for firefly-luciferase by intravenous injection. At 24- and 72-hours post injection, animals were intraperitoneally injected with 15 mg/mi of Luciferin substrate and whole-body luminescence was determined by a bioluminescent in vivo imaging system (IVIS).
# as §4, with “24-hours” for “24- and 72-hours”, “mg/ml” for “mg/mi”, “whole-body/liver/spleen” for “whole-body”
# [2] = RNA encapsulation efficacy (EE %) by Quant-IT Ribogreen kit; type: physicochemical; settings: LNP, Formulation No. 001, RNA No. 331
# Procedure: as §1
PDI [1],Size [1] [nm],EE (%) [2] [%],Size (nm) [1] [nm],SMILES,Kidney (p/s) (C57BL/6J mice),Large intestine (p/s) (C57BL/6J mice),Liver (p/s) (C57BL/6J mice),Small intestine (p/s) (C57BL/6J mice),Spleen (p/s) (C57BL/6J mice),Whole body (p/s) (C57BL/6J mice),IL-6 at 2 h (IL-6) [pg/mL],IL-6 at 24 h (IL-6) [pg/mL],MCP-1 at 2 h (MCP-1) [pg/mL],MCP-1 at 24 h (MCP-1) [pg/mL],Liver (p/s) (Mean) (Balb/c mice),Spleen (p/s) (Mean) (Balb/c mice),Whole body (p/s) (Mean) (Balb/c mice)
0.07,69.70,97.70,,CCCCCCCCCCC(CCCCCCCC)COC(=O)CCCCCOC(=O)NC(COC(=O)NCCN(C)C)C(=O)OCCCCCC(=O)OCC(CCCCCCCC)CCCCCCCCCC (stereo not shown) [Lipid 1017],9.00E+06,2.09E+07,9.32E+08,1.93E+08,4.32E+08,1.13E+09,12.8,0.792,2430,94.6,3.91E+07,1.30E+07,2.45E+08
0.10,68.78,97.11,,CCCCCCCCCCC(CCCCCCCC)COC(=O)CCCCCOC(=O)NC(COC(=O)NCCN1CCCC1)C(=O)OCCCCCC(=O)OCC(CCCCCCCC)CCCCCCCCCC (stereo not shown) [Lipid 1019],1.46E+07,2.12E+08,1.20E+09,5.41E+08,4.98E+08,2.49E+09,404,2.02,3720,401,3.60E+07,2.21E+07,2.46E+08
0.08,,90.29,59.33,CCCCCCCC/C=C\CCCCCCCCOC(=O)NC(COC(=O)NCCN1CCCCCC1)C(=O)OCCCCCC(=O)OCC(CCCCCCCC)CCCCCCCCCC (stereo not shown) [Lipid 1041],6.14E+06,1.74E+07,1.08E+09,1.96E+08,1.93E+08,8.03E+08,51.2,4.53,1180,68.1,,,
0.04,,96.51,52.67,CCCCCCCCCCC(CCCCCCCC)COC(=O)CCCCCOC(=O)NC(COC(=O)NCCN1CCCCCC1)C(=O)OCCCCCCCC(=O)OC(CCCCCCCC)CCCCCCCC (stereo not shown) [Lipid 1072],8.41E+06,1.22E+07,1.40E+10,2.07E+08,1.95E+08,6.81E+09,2.07,0.947,554,35.1,,,
